Assay results as given in patent US12180193B2, “Accelerating fibrosarcoma protein degrading compounds and associated methods of use” (Arvinas Operations, Inc., priority 2020, dated 2024).
Read-outs that look alike come from different tables or passages of the source. One block for each molecule: values may come before it.

Assays:
[1] = target: T1, BRAF V600E (Homo sapiens, UniProt P15056, V600E); assay: Cellular assay of target protein degradation, T-Rex 293 cells stably transfected with HA-BRAF_V600E (HA immunofluorescence, high content imaging); type: cell-based
T1 construct: expressed in transfected cells
Summary of the method: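 Doxycycline-induced (1 ng/mL) cells were treated 24 h at 37 °C with compound at 1 μM to 0.1 nM final in 0.1% DMSO. After fixation, permeabilization and blocking, anti-HA staining was imaged by high-content reading; DC50 and Dmax (% of control) were derived.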

[2] = target: T2, BRAF G466V (Homo sapiens, UniProt P15056, G466V); assay: Cellular assay of target protein degradation, T-Rex 293 cells stably transfected with HA-BRAF G466V (HA immunofluorescence, high content imaging); type: cell-based
T2 construct: expressed in transfected cells
Summary of the method: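 Cells expressing doxycycline-induced (0.75 ng/mL) HA-BRAF G466V were treated with compound at 30 nM to 3 pM in 0.1% DMSO for 24 hours at 37° C. After fixation and permeabilization, HA was immunostained and quantified by high content imaging to derive DC50 and Dmax.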

[3] = half maximal degradation, T-Rex 293 HA-BRAF V600E; read-out: BRaf V600E DC50
[4] = maximum degradation observed, T-Rex 293 HA-BRAF V600E
[5] = half maximal degradation, T-Rex 293 HA-BRAF G466V; read-out: BRaf G466V DC50
[6] = maximum degradation observed, T-Rex 293 HA-BRAF G466V

T2 sequence (P15056 whole entry G466V): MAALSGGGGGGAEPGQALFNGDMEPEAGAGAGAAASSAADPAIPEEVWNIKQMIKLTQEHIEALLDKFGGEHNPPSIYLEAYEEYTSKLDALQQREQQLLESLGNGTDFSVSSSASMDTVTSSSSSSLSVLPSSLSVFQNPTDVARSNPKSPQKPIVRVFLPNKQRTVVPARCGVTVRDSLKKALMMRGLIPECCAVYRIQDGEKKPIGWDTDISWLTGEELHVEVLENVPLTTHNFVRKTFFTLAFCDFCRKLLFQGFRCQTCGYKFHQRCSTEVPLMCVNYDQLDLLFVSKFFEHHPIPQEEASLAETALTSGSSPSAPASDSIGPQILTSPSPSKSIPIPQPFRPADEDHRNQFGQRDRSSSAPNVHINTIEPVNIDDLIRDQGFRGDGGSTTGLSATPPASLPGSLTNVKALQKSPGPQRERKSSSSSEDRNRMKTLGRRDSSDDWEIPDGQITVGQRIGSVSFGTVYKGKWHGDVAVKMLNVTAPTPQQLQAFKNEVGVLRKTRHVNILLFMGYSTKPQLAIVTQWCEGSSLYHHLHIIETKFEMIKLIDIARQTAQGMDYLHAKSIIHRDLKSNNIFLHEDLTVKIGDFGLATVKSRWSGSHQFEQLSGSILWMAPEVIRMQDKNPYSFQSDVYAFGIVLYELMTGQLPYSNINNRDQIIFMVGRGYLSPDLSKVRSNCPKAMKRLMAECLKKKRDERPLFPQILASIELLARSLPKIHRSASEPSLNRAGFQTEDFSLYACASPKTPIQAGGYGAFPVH
T1 sequence (P15056 whole entry V600E): as the sequence (P15056 whole entry G466V) above, with V466G, V600E counted along it

Structure (SMILES): O=C1CCC(N2Cc3cc(N4CCN(CC5CN(c6ncc(-c7cnc8[nH]cc(C(=O)c9c(F)ccc(NS(=O)(=O)N%10CC[C@@H](F)C%10)c9F)c8c7)cn6)C5)CC4)ccc3C2=O)C(=O)N1 (stereo partly drawn) [Compound 91, (3R)-N-[3-(5-{2-[3-({4-[2-(2,6-dioxopiperidin-3-yl)-1-oxo-2,3-dihydro-1H-isoindol-5-yl]piperazin-1-yl}methyl)azetidin-1-yl]pyrimidin-5-yl}-1H-pyrrolo[2,3-b]pyridine-3-carbonyl)-2,4-difluorophenyl]-3-fluoropyrrolidine-1-sulfonamide]
- DC50 [1, 3]: 5 to 50 nM
- Dmax [1, 4]: 35 to 70%
- DC50 [2, 5]: 1 to 10 nM
- Dmax [2, 6]: > 70%

Structure (SMILES): O=C1CCC(N2Cc3cc(N4CCC(CN5CC6(CCN(c7ccc(-c8cnc9[nH]cc(C(=O)c%10c(F)ccc(NS(=O)(=O)N%11CC[C@@H](F)C%11)c%10F)c9c8)cn7)C6)C5)CC4)ccc3C2=O)C(=O)N1 (stereo partly drawn) [Compound 92, (3R)-N-[3-(5-{6-[2-({1-[2-(2,6-dioxopiperidin-3-yl)-1-oxo-2,3-dihydro-1H-isoindol-5-yl]piperidin-4-yl}methyl)-2,6-diazaspiro[3.4]octan-6-yl]pyridin-3-yl}-1H-pyrrolo[2,3-b]pyridine-3-carbonyl)-2,4-difluorophenyl]-3-fluoropyrrolidine-1-sulfonamide]
- DC50 [1, 3]: < 5 nM
- Dmax [1, 4]: 35 to 70%
- DC50 [2, 5]: 1 to 10 nM
- Dmax [2, 6]: > 70%

Structure (SMILES): O=C1CCC(N2Cc3cc(N4CCC(CN5CC6(CCN(c7ncc(-c8cnc9[nH]cc(C(=O)c%10c(F)ccc(NS(=O)(=O)N%11CC[C@@H](F)C%11)c%10F)c9c8)cn7)C6)C5)CC4)ccc3C2=O)C(=O)N1 (stereo partly drawn) [Compound 93, (3R)-N-[3-(5-{2-[2-({1-[2-(2,6-dioxopiperidin-3-yl)-1-oxo-2,3-dihydro-1H-isoindol-5-yl]piperidin-4-yl}lmethyl)-2,6-diazaspiro[3.4]octan-6-yl]pyrimidin-5-yl}-1H-pyrrolo[2,3-b]pyridine-3-carbonyl)-2,4-difluorophenyl]-3-fluoropyrrolidine-1-sulfonamide]
- DC50 [1, 3]: < 5 nM
- Dmax [1, 4]: 35 to 70%
- DC50 [2, 5]: 1 to 10 nM
- Dmax [2, 6]: > 70%

Structure (SMILES): O=C1CCC(N2Cc3cc(N4CCC(CN5CCC6(CCN(c7ccc(-c8cnc9[nH]cc(C(=O)c%10c(F)ccc(NS(=O)(=O)N%11CC[C@@H](F)C%11)c%10F)c9c8)cn7)CC6)C5)CC4)ccc3C2=O)C(=O)N1 (stereo partly drawn) [Compound 95, (3R)-N-[3-(5-{6-[2-({1-[2-(2,6-dioxopiperidin-3-yl)-1-oxo-2,3-dihydro-1H-isoindol-5-yl]piperidin-4-yl}methyl)-2,8-diazaspiro[4.5]decan-8-yl]pyridin-3-yl}-1H-pyrrolo[2,3-b]pyridine-3-carbonyl)-2,4-difluorophenyl]-3-fluoropyrrolidine-1-sulfonamide]
- DC50 [1, 3]: > 500 nM
- DC50 [2, 5]: < 1 nM
- Dmax [2, 6]: 35 to 70%

Structure (SMILES): CC(C)(C1CCN(c2ccc(-c3cnc4[nH]cc(C(=O)c5c(F)ccc(NS(=O)(=O)N6CC[C@@H](F)C6)c5F)c4c3)cc2)CC1)N1CCN(c2ccc3c(c2)CN(C2CCC(=O)NC2=O)C3=O)CC1 (stereo partly drawn) [Compound 97, (3R)-N-[3-(5-{4-[4-(2-{4-[2-(2,6-dioxopiperidin-3-yl)-1-oxo-2,3-dihydro-1H-isoindol-5-yl]piperazin-1-yl}propan-2-yl)piperidin-1-yl]phenyl}-1H-pyrrolo[2,3-b]pyridine-3-carbonyl)-2,4-difluorophenyl]-3-fluoropyrrolidine-1-sulfonamide]
- Dmax [1, 4]: 35 to 70%
- DC50 ([1]; read-out: BRaf V600E DC50; half maximal degradation, T-Rex 293 HA-BRAF V600E): 5 to 50 nM
- Dmax [2, 6]: > 70%
- DC50 ([2]; read-out: BRaf G466V DC50; half maximal degradation, T-Rex 293 HA-BRAF G466V): 1 to 10 nM

Structure (SMILES): O=C1CCC(N2Cc3cc(N4CCN(C[C@@H](O)Cc5ccc(-c6cnc7[nH]cc(C(=O)c8c(F)ccc(NS(=O)(=O)N9CC[C@@H](F)C9)c8F)c7c6)cc5)CC4)ccc3C2=O)C(=O)N1 (stereo partly drawn) [Compound 98, (3R)-N-[3-(5-{4-[(2S)-3-{4-[2-(2,6-dioxopiperidin-3-yl)-1-oxo-2,3-dihydro-1H-isoindol-5-yl]piperazin-1-yl}-2-hydroxypropyl]phenyl}-1H-pyrrolo[2,3-b]pyridine-3-carbonyl)-2,4-difluorophenyl]-3-fluoropyrrolidine-1-sulfonamide]
- DC50 [1, 3]: 5 to 50 nM
- Dmax [1, 4]: 35 to 70%
- DC50 [2, 5]: 1 to 10 nM
- Dmax [2, 6]: > 70%

Structure (SMILES): O=C1CCC(N2Cc3cc(N4CCN(CC5CN(c6ccc(-c7cnc8[nH]cc(C(=O)c9c(F)ccc(NS(=O)(=O)N%10CC[C@@H](F)C%10)c9F)c8c7)cn6)C5)CC4)ccc3C2=O)C(=O)N1 (stereo partly drawn) [Compound 101, (3R)-N-[3-(5-{6-[3-({4-[2-(2,6-dioxopiperidin-3-yl)-1-oxo-2,3-dihydro-1H-isoindol-5-yl]piperazin-1-yl}methyl)azetidin-1-yl]pyridin-3-yl}-1H-pyrrolo[2,3-b]pyridine-3-carbonyl)-2,4-difluorophenyl]-3-fluoropyrrolidine-1-sulfonamide]
- DC50 [1, 3]: 5 to 50 nM
- Dmax [1, 4]: 35 to 70%
- DC50 [2, 5]: 1 to 10 nM
- Dmax [2, 6]: > 70%

Structure (SMILES): O=C1CCC(N2Cc3cc(C4CCN(CC5CC6(C5)CN(c5ccc(-c7cnc8[nH]cc(C(=O)c9c(F)ccc(NS(=O)(=O)N%10CC[C@@H](F)C%10)c9F)c8c7)cn5)C6)CC4)ccc3C2=O)C(=O)N1 (stereo partly drawn) [Compound 103, (3R)-N-[3-(5-{6-[6-({4-[2-(2,6-dioxopiperidin-3-yl)-1-oxo-2,3-dihydro-1H-isoindol-5-yl]piperidin-1-yl}methyl)-2-azaspiro [3.3]heptan-2-yl]pyridin-3-yl}-1H-pyrrolo[2,3-b]pyridine-3-carbonyl)-2,4-difluorophenyl]-3-fluoropyrrolidine-1-sulfonamide]
- DC50 [1, 3]: 5 to 50 nM
- Dmax [1, 4]: 35 to 70%
- DC50 [2, 5]: 1 to 10 nM
- Dmax [2, 6]: > 70%

Structure (SMILES): O=C1CCC(N2Cc3cc(N4CCC(CN5CCC6(CCN(c7ccc(-c8cnc9[nH]cc(C(=O)c%10c(F)ccc(NS(=O)(=O)N%11CC[C@@H](F)C%11)c%10F)c9c8)cc7F)CC6)C5)CC4)ccc3C2=O)C(=O)N1 (stereo partly drawn) [Compound 104, (3R)-N-[3-(5-{4-[2-({1-[2-(2,6-dioxopiperidin-3-yl)-1-oxo-2,3-dihydro-1H-isoindol-5-yl]piperidin-4-yl}methyl)-2,8-diazaspiro [4.5]decan-8-yl]-3-fluorophenyl}-1H-pyrrolo [2,3-b]pyridine-3-carbonyl)-2,4-difluorophenyl]-3-fluoropyrrolidine-1-sulfonamide]
- DC50 [1, 3]: < 5 nM
- Dmax [1, 4]: < 35%
- DC50 [2, 5]: 1 to 10 nM
- Dmax [2, 6]: > 70%

Continued, values first:

- DC50 [1, 3]: 5 to 50 nM
- Dmax [1, 4]: 35 to 70%
- DC50 [2, 5]: 1 to 10 nM
- Dmax [2, 6]: > 70%
Structure (SMILES): O=C1CCC(N2Cc3cc(C4CCN(CC5CCN(c6c(F)cc(-c7cnc8[nH]cc(C(=O)c9c(F)ccc(NS(=O)(=O)N%10CC[C@@H](F)C%10)c9F)c8c7)cc6F)CC5)CC4)ccc3C2=O)C(=O)N1 (stereo partly drawn) [Compound 94, (3R)-N-[3-(5-{4-[4-({4-[2-(2,6-dioxopiperidin-3-yl)-1-oxo-2,3-dihydro-1H-isoindol-5-yl]piperidin-1-yl}methyl)piperidin-1-yl]-3,5-difluorophenyl}-1H-pyrrolo[2,3-b]pyridine-3-carbonyl)-2,4-difluorophenyl]-3-fluoropyrrolidine-1-sulfonamide]

- DC50 [1, 3]: 5 to 50 nM
- Dmax [1, 4]: 35 to 70%
- DC50 [2, 5]: 1 to 10 nM
- Dmax [2, 6]: > 70%
Structure (SMILES): O=C1CC[C@H](N2Cc3cc(C4CN(CC5CC6(C5)CN(c5ccc(-c7cnc8[nH]cc(C(=O)c9c(F)ccc(NS(=O)(=O)N%10CC[C@@H](F)C%10)c9F)c8c7)cc5)C6)C4)ccc3C2=O)C(=O)N1 [Compound 99, (3R)-N-{3-[5-(4-{6-[(3-{2-[(3S)-2,6-dioxopiperidin-3-yl]-1-oxo-2,3-dihydro-1H-isoindol-5-yl}azetidin-1-yl)methyl]-2-azaspiro[3.3]heptan-2-yl}phenyl)-1H-pyrrolo[2,3-b]pyridine-3-carbonyl]-2,4-difluorophenyl}-3-fluoropyrrolidine-1-sulfonamide]

- DC50 [1, 3]: 5 to 50 nM
- Dmax [1, 4]: 35 to 70%
- DC50 [2, 5]: 1 to 10 nM
- Dmax [2, 6]: > 70%
Structure (SMILES): O=C1CC[C@@H](N2Cc3cc(C4CN(CC5CC6(C5)CN(c5ccc(-c7cnc8[nH]cc(C(=O)c9c(F)ccc(NS(=O)(=O)N%10CC[C@@H](F)C%10)c9F)c8c7)cc5)C6)C4)ccc3C2=O)C(=O)N1 [Compound 100, (3R)-N-{3-[5-(4-{6-[(3-{2-[(3R)-2,6-dioxopiperidin-3-yl]-1-oxo-2,3-dihydro-1H-isoindol-5-yl}azetidin-1-yl)methyl]-2-azaspiro[3.3]heptan-2-yl}phenyl)-1H-pyrrolo[2,3-b]pyridine-3-carbonyl]-2,4-difluorophenyl}-3-fluoropyrrolidine-1-sulfonamide]

- DC50 [1, 3]: > 500 nM
- Dmax [1, 4]: > 70%
- DC50 [2, 5]: 1 to 10 nM
- Dmax [2, 6]: 35 to 70%
Structure (SMILES): COc1cc(CN2CCN(c3ccc(-c4cnc5[nH]cc(C(=O)c6c(F)ccc(NS(=O)(=O)N7CC[C@@H](F)C7)c6F)c5c4)cc3)CC2)cc2c1C(=O)N(C1CCC(=O)NC1=O)C2 (stereo partly drawn) [Compound 102, (3R)-N-(3-{5-[4-(4-{[2-(2,6-dioxopiperidin-3-yl)-7-methoxy-1-oxo-2,3-dihydro-1H-isoindol-5-yl]methyl}piperazin-1-yl)phenyl]-1H-pyrrolo[2,3-b]pyridine-3-carbonyl}-2,4-difluorophenyl)-3-fluoropyrrolidine-1-sulfonamide]
